Results from ChEMBL document CHEMBL5113487, “Novel anilinopyrimidine derivatives as potential EGFRT790M/C797S Inhibitors: Design, Synthesis, biological activity study” (Bioorg Med Chem, 2022).
Active and inactive are the calls of the source. The rule behind the calls is not given here.

How the values were obtained:
BaF3 [1] = assay: Antitumor activity against mouse BaF3 cells harboring EGFR del18/T790M/C797S triple mutant implanted in Balb/c nude mouse assessed as tumor growth inhibition at 15 mg/kg, po administered once a day for 14 days relative to control; type: functional; details: BaF3, 336 h, time 14 day, read-out: TGI
[2] = Drug distribution in plasma of nude mouse implanted with mouse BaF3 cells harboring EGFR del18/T790M/C797S triple mutant at 15 to 45 mg/kg, po administered as single dose and measured after 4 hrs; type: ADME, organism-based; details: in vivo, dose 15-45 mg/kg
BaF3 [3] = assay: In vivo inhibition of ERK phosphorylation in nude mouse implanted with mouse BaF3 cells harboring EGFR del18/T790M/C797S triple mutant at 20 mg/kg, po administered as single dose and measured upto 24 hrs by Western blot analysis; type: organism-based
[4] = Antitumor activity against patient-derived human […] cells xenografted in mouse assessed as tumor growth inhibition at 20 mg/kg, po administered once a day for 28 days relative to control; type: functional; details: LD1-0025-200717, 672 h, time 28 day, read-out: TGI
CDK9/cyclin T1 = CDK9/cyclin T1 (Homo sapiens, UniProt P50750); assay: Inhibition of CDK9/Cyclin T1 (unknown origin); type: protein-complex assay
[5] = Acute toxicity in Sprague-Dawley rat assessed as biological changes in clinical pathology at 15 to 60 mg/kg, IG administered as single dose and measured after 14 days; type: organism-based; details: in vivo, po, 336 h, dose 15-60 mg/kg, time 14 day
[6] = Cmax in mouse at 5 mg/kg measured upto 24 hrs by LC-MS/MS analysis; type: ADME, organism-based; parameters: time < 24 hrs, dose 5 mg/kg; details: in vivo
[7] = molecular target: Epidermal growth factor receptor (Homo sapiens, UniProt P00533); assay: In vivo inhibition of EGFR phosphorylation in nude mouse implanted with mouse BaF3 cells harboring EGFR del18/T790M/C797S triple mutant at 20 mg/kg, po administered as single dose and measured upto 24 hrs by Western blot analysis
Chain of Epidermal growth factor receptor (Homo sapiens, UniProt P00533) (P00533 whole entry, looked up): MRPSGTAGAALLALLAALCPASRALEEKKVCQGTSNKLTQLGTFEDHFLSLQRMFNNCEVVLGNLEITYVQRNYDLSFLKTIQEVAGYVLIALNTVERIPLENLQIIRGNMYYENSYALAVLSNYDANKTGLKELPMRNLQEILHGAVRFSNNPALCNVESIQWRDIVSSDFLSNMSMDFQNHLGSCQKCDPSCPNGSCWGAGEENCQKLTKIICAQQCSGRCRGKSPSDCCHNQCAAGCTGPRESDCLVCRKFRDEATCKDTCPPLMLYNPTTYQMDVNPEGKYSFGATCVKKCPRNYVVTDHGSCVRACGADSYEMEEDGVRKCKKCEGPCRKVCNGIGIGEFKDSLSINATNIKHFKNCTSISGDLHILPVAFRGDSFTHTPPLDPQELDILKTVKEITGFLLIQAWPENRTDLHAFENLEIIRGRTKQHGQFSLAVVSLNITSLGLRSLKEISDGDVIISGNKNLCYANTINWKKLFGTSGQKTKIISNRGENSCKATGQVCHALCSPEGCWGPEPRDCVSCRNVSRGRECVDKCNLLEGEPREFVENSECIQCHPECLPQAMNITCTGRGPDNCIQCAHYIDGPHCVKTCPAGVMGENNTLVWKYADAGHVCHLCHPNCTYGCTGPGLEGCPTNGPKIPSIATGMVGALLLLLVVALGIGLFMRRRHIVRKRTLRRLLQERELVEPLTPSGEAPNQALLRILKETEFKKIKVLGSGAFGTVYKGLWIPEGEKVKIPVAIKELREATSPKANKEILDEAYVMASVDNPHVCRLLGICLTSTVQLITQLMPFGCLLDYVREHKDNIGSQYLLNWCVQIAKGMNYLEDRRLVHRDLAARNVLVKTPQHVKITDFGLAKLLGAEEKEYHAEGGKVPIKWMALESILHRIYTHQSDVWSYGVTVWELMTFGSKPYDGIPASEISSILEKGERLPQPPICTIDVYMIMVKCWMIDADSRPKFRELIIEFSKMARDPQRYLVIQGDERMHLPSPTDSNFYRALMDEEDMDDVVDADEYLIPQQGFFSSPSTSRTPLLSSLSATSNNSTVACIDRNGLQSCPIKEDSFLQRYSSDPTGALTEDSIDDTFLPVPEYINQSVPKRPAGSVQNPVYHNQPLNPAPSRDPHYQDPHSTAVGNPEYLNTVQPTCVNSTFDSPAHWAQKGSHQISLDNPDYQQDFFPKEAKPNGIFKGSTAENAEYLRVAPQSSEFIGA

[8] = molecular target: Mitogen-activated protein kinase 14 (Homo sapiens, UniProt Q16539); assay: Inhibition of P38alpha (unknown origin)
Chain of Mitogen-activated protein kinase 14 (Q16539 whole entry): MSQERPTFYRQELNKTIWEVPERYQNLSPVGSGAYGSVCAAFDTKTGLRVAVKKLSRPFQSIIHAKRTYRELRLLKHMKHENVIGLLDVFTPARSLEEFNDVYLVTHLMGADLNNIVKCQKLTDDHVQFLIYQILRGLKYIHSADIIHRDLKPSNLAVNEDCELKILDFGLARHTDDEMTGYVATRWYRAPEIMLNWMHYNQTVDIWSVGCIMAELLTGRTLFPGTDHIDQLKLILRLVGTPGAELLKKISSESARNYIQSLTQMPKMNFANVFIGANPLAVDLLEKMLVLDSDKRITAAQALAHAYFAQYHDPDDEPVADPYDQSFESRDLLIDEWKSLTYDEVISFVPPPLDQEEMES

[9] = molecular target: Epidermal growth factor receptor (Homo sapiens, UniProt P00533, C797S/EX18DEL/T790M); assay: Inhibition of EGFR del18/T790M/C797S triple mutant (unknown origin) using TK as substrate incubated for 120 mins in the presence of ATP by HTRF assay
Chain of Epidermal growth factor receptor (Homo sapiens, UniProt P00533, C797S/EX18DEL/T790M) (P00533 whole entry, looked up, stated change not applied, canonical isoform): as the sequence (P00533 whole entry, looked up) above

[10] = molecular target: Phosphatidylinositol 4,5-bisphosphate 3-kinase catalytic subunit alpha isoform (Homo sapiens, UniProt P42336); assay: Inhibition of PI3Kalpha (unknown origin)
[11] = Toxicity in Sprague-Dawley rat assessed as body weight gain during recovery period at 15 mg/kg, po administered once a day for 4 weeks and measured 4 weeks post recovery period; type: organism-based; details: in vivo, 1344 h, time 8 weeks
[12] = Inhibition of ABL (unknown origin); parameters: species or system Homo sapiens
[13] = Drug distribution in brain of nude mouse implanted with mouse BaF3 cells harboring EGFR del18/T790M/C797S triple mutant at 20 mg/kg, po administered as single dose and measured upto 24 hrs; type: ADME, organism-based; details: in vivo
[14] = Antitumor activity against patient-derived human […] cells xenografted in mouse assessed as tumor growth inhibition at 40 mg/kg, po administered once a day for 28 days relative to control; type: functional; details: LD1-0025-200717, 672 h, time 28 day, read-out: TGI
[15] = molecular target: Serine/threonine-protein kinase B-raf (Homo sapiens, UniProt P15056); assay: Inhibition of BRAF (unknown origin)
[16] = molecular target: Epidermal growth factor receptor (Homo sapiens, UniProt P00533, C797S/L858R/T790M); assay: Inhibition of EGFR L858R/T790M/C797S triple mutant (unknown origin) using TK as substrate incubated for 120 mins in the presence of ATP by HTRF assay
Chain of Epidermal growth factor receptor (Homo sapiens, UniProt P00533, C797S/L858R/T790M) (P00533 25-1210 T790M/C797S/L858R limits assumed): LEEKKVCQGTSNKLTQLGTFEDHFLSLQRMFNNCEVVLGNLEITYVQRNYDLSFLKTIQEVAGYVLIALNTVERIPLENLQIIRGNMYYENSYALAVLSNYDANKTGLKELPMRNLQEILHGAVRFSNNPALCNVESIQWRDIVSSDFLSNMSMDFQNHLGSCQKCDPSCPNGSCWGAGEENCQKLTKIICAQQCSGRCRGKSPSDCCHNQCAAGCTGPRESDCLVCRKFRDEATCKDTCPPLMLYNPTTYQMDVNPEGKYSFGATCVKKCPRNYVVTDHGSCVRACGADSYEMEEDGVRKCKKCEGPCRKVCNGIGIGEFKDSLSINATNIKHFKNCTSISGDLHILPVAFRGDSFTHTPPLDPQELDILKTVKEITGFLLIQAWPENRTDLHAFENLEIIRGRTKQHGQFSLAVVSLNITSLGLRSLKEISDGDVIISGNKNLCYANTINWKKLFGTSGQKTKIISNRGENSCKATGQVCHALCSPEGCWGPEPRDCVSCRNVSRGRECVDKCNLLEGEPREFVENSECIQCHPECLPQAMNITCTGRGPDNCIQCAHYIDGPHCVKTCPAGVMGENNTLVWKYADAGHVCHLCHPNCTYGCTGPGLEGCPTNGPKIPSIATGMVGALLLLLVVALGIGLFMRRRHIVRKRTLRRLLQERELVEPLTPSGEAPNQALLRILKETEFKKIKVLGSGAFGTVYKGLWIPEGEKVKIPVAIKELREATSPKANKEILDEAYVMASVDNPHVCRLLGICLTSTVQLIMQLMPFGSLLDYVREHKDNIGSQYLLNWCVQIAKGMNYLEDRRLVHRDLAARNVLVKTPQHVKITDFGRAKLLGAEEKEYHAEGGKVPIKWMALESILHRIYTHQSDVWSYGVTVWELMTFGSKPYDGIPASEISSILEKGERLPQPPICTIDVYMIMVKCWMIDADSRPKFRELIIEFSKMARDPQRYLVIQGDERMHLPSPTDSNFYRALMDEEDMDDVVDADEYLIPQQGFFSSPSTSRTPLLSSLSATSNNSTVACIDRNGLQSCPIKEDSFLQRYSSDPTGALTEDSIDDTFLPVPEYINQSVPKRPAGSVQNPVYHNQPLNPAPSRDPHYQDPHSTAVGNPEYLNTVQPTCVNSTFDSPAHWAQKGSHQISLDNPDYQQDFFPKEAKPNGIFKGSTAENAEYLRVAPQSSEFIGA

BaF3 [17] = assay: Antitumor activity against mouse BaF3 cells harboring EGFR del18/T790M/C797S triple mutant implanted in Balb/c nude mouse assessed as tumor weight at 15 mg/kg, po administered once a day for 14 days; type: functional; details: time 14 day
BaF3 [18] = assay: Antitumor activity against mouse BaF3 cells harboring EGFR del18/T790M/C797S triple mutant implanted in Balb/c nude mouse assessed as tumor weight at 40 mg/kg, po administered once a day for 14 days; type: functional; details: time 14 day
[19] = AUC(0 to infinity) in mouse at 5 mg/kg measured upto 24 hrs by LC-MS/MS analysis; type: ADME, organism-based; parameters: dose 5 mg/kg, time < 24 hrs; details: in vivo
BaF3 [20] = assay: Antitumor activity against mouse BaF3 cells harboring EGFR del18/T790M/C797S triple mutant implanted in Balb/c nude mouse assessed as tumor weight at 30 mg/kg, po administered once a day for 14 days; type: functional; details: time 14 day
PC-9 [21] = assay: Antitumor activity against human PC-9 cells harboring EGFR del18/T790M/C797S triple mutant xenografted in NOD/SCID mouse assessed as tumor growth inhibition at 15 mg/kg, po administered once a day for 21 days relative to control; type: functional; details: PC-9, 504 h, time 21 day, read-out: TGI
[22] = Antitumor activity against patient-derived human […] cells xenografted in mouse assessed as tumor weight at 40 mg/kg, po administered once a day for 28 days relative to control; type: functional, LD1-0025-200717; details: time 28 day
[23] = Toxicity in orally dosed Sprague-Dawley rat assessed as maximum tolerated dose administered once a day for 4 weeks and measured 4 weeks post recovery period; type: organism-based; details: in vivo, route po, time 8 weeks
[24] = Half-life in mouse at 5 mg/kg measured upto 24 hrs by LC-MS/MS analysis; type: ADME, organism-based; details: in vivo
[25] = Antitumor activity against patient-derived human […] cells xenografted in mouse assessed as tumor weight at 20 mg/kg, po administered once a day for 28 days relative to control; type: functional, LD1-0025-200717; details: time 28 day
[26] = Toxicity in Sprague-Dawley rat assessed as effect on body weight at 3 to 7.5 mg/kg, po administered once a day for 4 weeks and measured 4 weeks post recovery period; type: organism-based; details: in vivo, 1344 h, dose 3-7.5 mg/kg, time 8 weeks
BaF3 [27] = assay: Antiproliferative activity against mouse BaF3 cells harboring del18/T790M/C797S triple mutant assessed as cell growth inhibition incubated for 72 hrs by cell titre glo luminescence assay; type: functional, cell-based; details: BaF3, 72 h
PC-9 [28] = assay: Antitumor activity against human PC-9 cells harboring EGFR del18/T790M/C797S triple mutant xenografted in NOD/SCID mouse assessed as tumor growth inhibition at 40 mg/kg, po administered once a day for 21 days relative to control; type: functional; details: PC-9, 504 h, time 21 day, read-out: TGI
PC-9 [29] = assay: Antitumor activity against human PC-9 cells harboring EGFR del18/T790M/C797S triple mutant xenografted in NOD/SCID mouse assessed as tumor growth inhibition at 30 mg/kg, po administered once a day for 21 days relative to control; type: functional; details: PC-9, 504 h, time 21 day, read-out: TGI
[30] = MRT in mouse at 5 mg/kg measured upto 24 hrs by LC-MS/MS analysis; type: ADME, organism-based; details: in vivo
CDK6/cyclin D3 = CDK6/cyclin D3 (Homo sapiens, UniProt Q00534); assay: Inhibition of CDK6/cyclin-D3 (unknown origin); type: protein-complex assay
Chain of CDK6/cyclin D3 (P30281 whole entry): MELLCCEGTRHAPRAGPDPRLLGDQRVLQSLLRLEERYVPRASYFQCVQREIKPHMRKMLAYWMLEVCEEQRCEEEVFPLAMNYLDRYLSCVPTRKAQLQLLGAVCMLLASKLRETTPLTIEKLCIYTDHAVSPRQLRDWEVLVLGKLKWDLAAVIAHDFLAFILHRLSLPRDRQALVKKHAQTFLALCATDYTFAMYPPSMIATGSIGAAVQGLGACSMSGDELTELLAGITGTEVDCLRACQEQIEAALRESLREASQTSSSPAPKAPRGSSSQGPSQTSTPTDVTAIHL
Chain of CDK6/cyclin D3 (Q00534 whole entry): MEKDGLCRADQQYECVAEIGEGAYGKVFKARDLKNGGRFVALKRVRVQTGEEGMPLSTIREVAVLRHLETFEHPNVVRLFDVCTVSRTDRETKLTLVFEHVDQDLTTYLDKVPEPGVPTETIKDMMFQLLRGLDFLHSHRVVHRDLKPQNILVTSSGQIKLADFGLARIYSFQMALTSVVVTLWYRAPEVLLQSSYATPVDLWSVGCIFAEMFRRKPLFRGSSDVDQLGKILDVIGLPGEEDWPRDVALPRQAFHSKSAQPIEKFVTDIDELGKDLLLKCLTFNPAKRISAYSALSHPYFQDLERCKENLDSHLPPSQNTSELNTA

[31] = AUC(0 to t) in mouse at 5 mg/kg measured upto 24 hrs by LC-MS/MS analysis; type: ADME, organism-based; parameters: time < 24 hrs, dose 5 mg/kg; details: in vivo
[32] = Drug distribution in tumor of nude mouse implanted with mouse BaF3 cells harboring EGFR del18/T790M/C797S triple mutant at 20 mg/kg, po administered as single dose and measured upto 24 hrs; type: ADME, organism-based, Neoplasm; details: in vivo
[33] = Drug distribution in tumor of nude mouse implanted with mouse BaF3 cells harboring EGFR del18/T790M/C797S triple mutant at 15 to 45 mg/kg, po administered as single dose and measured after 4 hrs; type: ADME, organism-based, Neoplasm; details: in vivo, dose 15-45 mg/kg
[34] = Toxicity in Sprague-Dawley rat assessed as animal death at 3 to 15 mg/kg, po administered once a day for 4 weeks and measured 4 weeks post recovery period; type: organism-based; details: in vivo, 1344 h, dose 3-15 mg/kg, time 8 weeks
BaF3 [35] = assay: Antitumor activity against mouse BaF3 cells harboring EGFR del18/T790M/C797S triple mutant implanted in Balb/c nude mouse assessed as tumor growth inhibition at 40 mg/kg, po administered once a day for 14 days relative to control; type: functional; details: BaF3, 336 h, time 14 day, read-out: TGI
[36] = molecular target: RAC-gamma serine/threonine-protein kinase (Homo sapiens, UniProt Q9Y243); assay: Inhibition of AKT3 (unknown origin)
Chain of RAC-gamma serine/threonine-protein kinase (Q9Y243 whole entry): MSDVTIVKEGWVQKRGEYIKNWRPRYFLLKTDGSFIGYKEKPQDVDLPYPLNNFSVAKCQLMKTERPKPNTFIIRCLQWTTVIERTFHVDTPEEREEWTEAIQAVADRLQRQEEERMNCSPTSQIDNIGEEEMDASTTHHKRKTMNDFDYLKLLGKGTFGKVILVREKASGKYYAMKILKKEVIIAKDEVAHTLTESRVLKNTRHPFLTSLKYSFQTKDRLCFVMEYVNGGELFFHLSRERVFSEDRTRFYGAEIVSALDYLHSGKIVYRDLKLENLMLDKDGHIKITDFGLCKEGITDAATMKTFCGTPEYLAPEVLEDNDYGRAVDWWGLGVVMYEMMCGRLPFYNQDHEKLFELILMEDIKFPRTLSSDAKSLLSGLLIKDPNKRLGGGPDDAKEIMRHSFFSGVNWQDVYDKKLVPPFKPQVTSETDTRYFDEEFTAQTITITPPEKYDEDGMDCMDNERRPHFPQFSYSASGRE

BaF3 [37] = assay: Antitumor activity against mouse BaF3 cells harboring EGFR del18/T790M/C797S triple mutant implanted in Balb/c nude mouse assessed as tumor growth inhibition at 30 mg/kg, po administered once a day for 14 days relative to control; type: functional; details: BaF3, 336 h, time 14 day, read-out: TGI
A-431 = assay: Antiproliferative activity against human A-431 cells assessed as cell growth inhibition incubated for 72 hrs by cell titre glo luminescence assay; type: functional, cell-based; details: A-431, 72 h
BaF3 [38] = assay: cells; details: Mus musculus, BaF3, 72 h

SMILES: COCC1CN(C2CCN(c3cc(OC)c(Nc4ncc(Br)c(Nc5ccc6c(c5P(C)(C)=O)OCCO6)n4)cc3C)CC2)C1
- inhibition in vivo at 15 mg/kg (BaF3 [1]): 48.4%
- Drug uptake [2]: Active
- inhibition (BaF3 [3]): Active
- inhibition in vivo at 20 mg/kg [4]: 58.4%
- IC50 (CDK9/cyclin T1): 4080 nM
- Activity [5]: Non-Toxic
- Cmax [6]: 1990 ng/mL
- inhibition [7]: Active
- IC50 [8]: > 10000 nM
- IC50 [9]: 0.31 nM
- IC50 [10]: > 10000 nM
- Activity [11]: Toxic
- IC50 [12]: 86 nM
- Drug uptake [13]: Active
- inhibition in vivo at 40 mg/kg [14]: 67.4%
- IC50 [15]: > 10000 nM
- IC50 [16]: 0.09 nM
- Activity (BaF3 [17]): 0.653 g
- Activity (BaF3 [18]): 0.161 g
- AUC(0-inf) [19]: 11600 ng·h/mL
- Activity (BaF3 [20]): 0.319 g
- inhibition in vivo at 15 mg/kg (PC-9 [21]): 22%
- Activity [22]: 0.38 g
- MTD at 1344 h [23]: 15 mg/kg
- half-life [24]: 2.9 h
- Activity [25]: 0.475 g
- Activity [26]: Non-Toxic
- IC50 (BaF3 [27]): 14 nM
- inhibition in vivo at 40 mg/kg (PC-9 [28]): 68.8%
- inhibition in vivo at 30 mg/kg (PC-9 [29]): 47.2%
- MRT [30]: 4.7 h
- IC50 (CDK6/cyclin D3): > 10000 nM
- AUC(0-t) at 24 h [31]: 11600 ng·h/mL
- Drug uptake [32]: Active
- Drug uptake [33]: Active
- Activity [34]: Non-Toxic
- inhibition in vivo at 40 mg/kg (BaF3 [35]): 90.3%
- IC50 [36]: > 10000 nM
- inhibition in vivo at 30 mg/kg (BaF3 [37]): 82.6%

SMILES: COc1cc(N2CCC(N3CCN(C)CC3)CC2)ccc1Nc1ncc(Cl)c(Nc2ccccc2P(C)(C)=O)n1 [BRIGATINIB]
- IC50 (A-431): 709 nM
- IC50 (BaF3 [38]): < 100 nM
- IC50 (BaF3 [27]): 433 nM

SMILES: CCO[C@@H]1CCN(C2CCN(c3cc(OC)c(Nc4ncc(Br)c(Nc5ccc6c(c5P(C)(C)=O)OCCO6)n4)cc3C)CC2)C1
- Cmax [6]: 1260 ng/mL
- IC50 [9]: 0.28 nM
- IC50 [16]: 0.41 nM
- AUC(0-inf) [19]: 11200 ng·h/mL
- half-life [24]: 3.5 h
- IC50 (BaF3 [27]): 30 nM
- MRT [30]: 5.5 h
- AUC(0-t) at 24 h [31]: 11100 ng·h/mL

SMILES: COc1cc(N2CCC(N3CC(N(C)C)C3)CC2)c(C)cc1Nc1ncc(Br)c(Nc2ccc3c(c2P(C)(C)=O)OCCO3)n1
- Cmax [6]: 1680 ng/mL
- IC50 [9]: 0.3 nM
- IC50 [16]: 0.22 nM
- AUC(0-inf) [19]: 16500 ng·h/mL
- half-life [24]: 5.6 h
- IC50 (BaF3 [27]): 13 nM
- MRT [30]: 6 h
- AUC(0-t) at 24 h [31]: 16400 ng·h/mL
